# Results: patent publication US12508275B2, “Neomycin based compounds, and pharmaceutical use thereof” (UNIVERSITÉ COTE D'AZUR, priority 2019, dated 2025)
# Columns and labels:
# [1] = test system: luminescent patient derived GSC orthotopic xenograft; assay: Orthotopic xenograft of luminescent patient derived GSC, treatment from two weeks after injection; type: in vivo, nude mice
# Method: FIG. 3: Nude mice were orthotopically xenografted by luminescent patient derived GSC. (A-B) Two weeks following injections, mice were intraperitoneally injected with 10 mg/kg (n=4), 7.5 mg/kg (n=4) or 5 mg/kg (n=4) of Compound 9a or vehicle alone as control (ctl n=10). A) graphical representation of the average of tumor growth in the control group (n=10) and in each Compound 9a treated groups. B) Survival of the whole population of mice of the untreated and treated groups were compared using a log rank test according to Kaplan Meier method. (R command, see World Wide Web: biostatgv.sentiweb.fr/?module=tests/surv). The solid line represents the survival rate of control untreated mice. The dotted line represents the survival rate of mice treated by compound 9a. C) Mice treatment with compound 9a when the tumors were already formed. Tumor growth representation in mice, treated either with DMSO (control: -♦-) or Compound 9a (-▪-). Tumor growth was controlled every week by live imaging. The solid line represents the tumor growth in control untreated mice. The dotted line represents the tumor growth in mice treated by compound 9a.
# Nude mice were orthotopically xenografted by luminescent patient derived GSC. […]
# [2] = test system: normal neural stem cells (NNSC); assay: XTT toxicity assay on normal neural stem cells; type: cell-based
# Method: (§1) FIG. 4: Determination of compound toxicity on GSC and normal human cells. (A) GB5 were incubated with growing concentration of Compounds 9a-b and 18a. (B) human normal neural stem cell (NNSC), human normal kidney cells (NHEK), human normal hepatocytes (HEPRG) and (C) human endothelial cells (HUVEC) were treated with growing concentration of Compound 9a. 7 days later, the cells were subjected to an XTT assays as described in the method section. The results are the meaning of at least two separate experiments. Cell death was confirmed by trypan blue staining (not shown).
# (§2) V—Toxicity tests: NNSC, GB5, TG6, HEK293, and HepaRG, HUVEC were seeded at 2000 cells/well in 96 wells plate in their respective culture mediums alone or containing growing concentration from 10 to 500 uM of Compounds 9a-b. Cultures were incubated 4 days and the cellular toxicity has been evaluated by XTT assays. Cell viability has been also assessed by counting living and dead cells with trypan blue staining.
# XTT assays allows, through cell metabolism measurement, to determine a cytotoxic/cytostatic effects. Compounds 9a-b and 18a were tested for their eventual toxicity by XTT assays as described in the material and method section. At the working concentrations 10 to 25 uM, the compounds are not toxic for GSC (FIG. 4A). […]
# [3] = test system: OCT4, NANOG, SOX2 expression in GB5; assay: OCT4, NANOG, SOX2 pluripotency marker immunofluorescence in GB5; type: cell-based, human; conditions: GB5, 20 uM
# [4] = test system: human hepatocytes (HEPRG); assay: XTT toxicity assay on human hepatocytes; type: cell-based
# Method: as §1
# HepaRG™ are terminally differentiated hepatic cells derived from a human hepatic progenitor cell that retains many characteristics of primary human hepatocytes. HepaRG were grown in William's E Medium supplemented with Tox medium supplement and glutamax.
# as §2
# XTT assays allows, through cell metabolism measurement, to determine a cytotoxic/cytostatic effects. […]
# [5] = test system: GB5 cells; assay: TMZ assay: GSC sensitivity to Temozolomide (XTT); type: cell-based, human; conditions: three days
# Method: FIG. 5: Sensitivity to TMZ was assessed by comparing the percentage of dead cells between TMZ treated GB5 and TMZ treated GB5 in combination with Compound 9a. GB5 cells have been treated with 400 uM TMZ alone or in combination with growing concentrations of Compounds 9a-b and 18b. The results are the meaning of at least two separate experiments.
# IV—TMZ assay: TG6 and GB5 were seeded at 2000 cells/well in 96 wells plate in NS34+ or treated with medium containing 400 uM of TMZ alone or mixed with 10, 25 and 50 uM of Compounds 9a-b and 18a-b. Cultures were incubated 4 days and the cell viability has been evaluated by XTT assays and a count of living and dead cells with trypan blue staining.
# Temozolomide is the chemotherapy of reference for GBM treatment. In order to assess whether the compounds might sensitize GSC to TMZ, TMZ (400 uM) pretreated GB5 cells were incubated with 10, 25 and 50 uM of Compounds 9a-b and 18b. Three days later the experiment is stop and the cells were subjected to an XTT assays. […] Cell toxicity was confirmed by trypan blue staining.
smiles,measurement,setting,value
"NCCCCNCCCNC(=O)c1csc(-c2csc(CCNC(=O)CCc3cn(CC4OC(OC5C(O)C(N)CC(N)C5OC5OC(CN)C(O)C(O)C5N)C(O)C4OC4OC(CN)C(O)C(O)C4N)nn3)n2)n1 (stereo not drawn) [Compound 9a, N-(3-((4-Aminobutyl)amino)propyl)-2′-(2-(3-(1-methyl-1H-1,2,3-triazol-4-yl)propanamido)ethyl)-[2,4′-bithiazole]-4-carboxamide-neomycin]",treated mice that developed a tumor,"[1]; intraperitoneal 10, 7.5 or 5 mg/kg, three days a week, all control mice developed a tumor",two mice above twelve
same,tumor initiation and development,"[1]; intraperitoneal at 10 mg/kg, 7.5 mg/kg and 5 mg/kg",prevented tumor initiation and development
same,toxicity (XTT),[2]; 100 uM and above,toxic
same,toxicity (XTT),[2]; between 10 to 50 uM,not toxic
same,"OCT4, NANOG and SOX2 expression",[3],down regulation
same,toxicity (XTT),[4]; 100 uM and above,toxic
same,toxicity (XTT),[4]; between 10 to 50 uM,not toxic
same,increase of TMZ sensitivity,"[5]; GB5, TMZ 400 uM plus compound at 10 uM",2 fold
same,"increase of TMZ sensitivity, maximal effect","[5]; GB5, TMZ 400 uM plus compound at 50 uM",2.9 fold
